Results from US20230303552A1, “ARYLSULFONYL DERIVATIVES AND THEIR USE AS MUSCARINIC ACETYLCHOLINE RECEPTOR M5 INHIBITORS” (Vanderbilt University, priority 2020, published 2023).

Target: T1, human M5 receptors (hM5) (Homo sapiens, UniProt P08912)
T1 construct: expressed in transfected cells
T1 sequence (P08912 1-532): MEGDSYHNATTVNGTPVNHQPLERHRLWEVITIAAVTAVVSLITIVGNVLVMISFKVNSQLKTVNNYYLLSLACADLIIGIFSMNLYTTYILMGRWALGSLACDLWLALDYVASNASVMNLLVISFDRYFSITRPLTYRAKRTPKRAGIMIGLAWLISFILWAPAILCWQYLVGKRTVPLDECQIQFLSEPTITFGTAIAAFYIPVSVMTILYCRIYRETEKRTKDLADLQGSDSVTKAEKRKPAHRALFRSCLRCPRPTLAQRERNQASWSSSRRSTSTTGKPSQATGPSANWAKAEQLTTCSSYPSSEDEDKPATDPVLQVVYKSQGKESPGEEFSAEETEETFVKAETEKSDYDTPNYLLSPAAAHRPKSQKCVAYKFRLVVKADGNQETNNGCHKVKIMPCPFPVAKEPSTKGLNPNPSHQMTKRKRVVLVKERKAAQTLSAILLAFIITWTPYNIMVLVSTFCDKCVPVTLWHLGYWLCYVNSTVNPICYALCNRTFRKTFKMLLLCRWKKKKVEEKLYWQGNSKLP
Assay: Cell-based functional calcium mobilization assay of mAChR M5 activity (inhibition of EC80 acetylcholine response) in CHO cells
Conditions: CHO cells stably expressing hM5; for IC50: calcium flux (Fluo-4), EC80 acetylcholine addition; for EC80 MIN: minimum of EC80 acetylcholine response, normalized to maximum acetylcholine response
Outline: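 CHO cells stably expressing human M5, loaded with Fluo-4 AM in HBSS/20 mM HEPES/2.5 mM probenecid pH 7.4. Compound added 140 s before acetylcholine EC20, then EC80 added 125 s later. Calcium flux normalized to maximal acetylcholine response; IC50 from ten-point curves in the EC80 window.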

SMILES | IC50 | EC80 MIN
CC1(C)COc2ccc(S(=O)(=O)N3CC[C@@H](C(=O)Nc4ccc5scnc5c4)C3)cc21 [Compound 127, (R)-N-(benzo[d]thiazol-5-yl)-1-((3,3-dimethyl-2,3-dihydrobenzofuran-5-yl)sulfonyl)pyrrolidine-3-carboxamide] | > 10 µM | 8%
C[C@H]1CN(S(=O)(=O)c2ccc3c(c2)C(C)(C)CO3)C[C@@H]1C(=O)Nc1ccc2scnc2c1 [Compound 128, (3R,4R)-N-(benzo[d]thiazol-5-yl)-1-((3,3-dimethyl-2,3-dihydrobenzofuran-5-yl)sulfonyl)-4-methylpyrrolidine-3-carboxamide] | > 10 µM | 29%
C[C@@H]1CN(S(=O)(=O)c2ccc3c(c2)C(C)(C)CO3)C[C@@H]1C(=O)Nc1ccc2scnc2c1 [Compound 129] | 6.49 µM | 4%
O=C(Nc1ccc2scnc2c1)[C@@H]1CCN(S(=O)(=O)c2ccc3ncsc3c2)C1 [Compound 136, (R)-N-(benzo[d]thiazol-5-yl)-1-(benzo[d]thiazol-6-ylsulfonyl)pyrrolidine-3-carboxamide] | 0.29 µM | 2%
[2H]C1([2H])Oc2ccc(S(=O)(=O)N3CC[C@@H](C(=O)Nc4ccc5scnc5c4)C3)cc2C1([2H])[2H] [Compound 140] | 0.035 µM | 2%
CC1(C)CN(S(=O)(=O)c2ccc3ncsc3c2)CCC1C(=O)Nc1ccc2scnc2c1 (stereo not shown) [Compound 141, N-(benzo[d]thiazol-5-yl)-1-(benzo[d]thiazol-6-ylsulfonyl)-3,3-dimethylpiperidine-4-carboxamide] | > 10 µM | 38%
CC1(C)CN(S(=O)(=O)c2ccc(Cl)nc2)CCC1C(=O)Nc1ccc2scnc2c1 (stereo not shown) [Compound 142] | 4.44 µM | 3%
Cc1noc2ncc(S(=O)(=O)N3CC[C@@H](C(=O)Nc4ccc5scnc5c4)C3)cc12 [Compound 149, (R)-N-(benzuo[d]thiazo1-5-yl)-1-((3-methylisoxazolo[5,4-b]pyridin-5-yl)sulfonyl)pyrrolidine-3-carboxamide] | > 10 µM | 36%
O=C(Nc1ccc2scnc2c1)[C@@H]1CCN(S(=O)(=O)c2ccc3c(c2)CCC3)C1 [Compound 150, (R)-N-(benzo[d]thiazol-5-yl)-1-((2,3-dihydro-1H-inden-5-yl)sulfonyl)pyrrolidine-3-carboxamide] | > 10 µM | –
Cc1noc(C)c1S(=O)(=O)N1CC[C@@H](C(=O)Nc2ccc3scnc3c2)C1 [Compound 151, (R)-N-(benzo[d]thiazo1-5-yl)-1-((3,5-dimethylisoxazol-4-yl)sulfonyl)pyrrolidine-3-carboxamide] | 3.84 µM | 5%
O=C(Nc1ccc2scnc2c1)[C@@H]1CCN(S(=O)(=O)c2ccc3c(c2)OCO3)C1 [Compound 154, (R)-1-(benzo[d][1,3]dioxol-5-yisulfonyl)-N-(benzo[d]thiazol-5-yl)pyrrolidine-3-carboxamide] | 0.35 µM | 3%
O=C(Nc1ccc2scnc2c1)C1CCN(S(=O)(=O)c2ccccc2-c2ccno2)CC1 [Compound 155, N-(benzo[d]thiazol-5-yl)-1-((2-(isoxazol-5-yl)phenyl)sulfonyl)piperidine-4-carboxamide] | > 10 µM | 54%

The next lines start with the values.

IC50 | EC80 MIN | SMILES
> 10 µM | 55% | CC1(C)COc2ccc(S(=O)(=O)N3CCC(C(=O)Nc4ccc5scnc5c4)CC3)cc21 [Compound 126, N-(benzo[d]thiazol-5-yl)-1-((3,3-dimethyl-2,3-dihydrobenzofuran-5-yl)sulfonyl)piperidine-4-carboxamide]
1.8 µM | 3% | O=C(Nc1ccc2cccnc2c1)C1CCN(S(=O)(=O)c2ccc3c(c2)CCO3)CC1 [Compound 135, 1-((2,3-dihydrobenzofuran-5-yl)sulfonyl)-N-(quinolin-7-yl)pipcridinc-4-carboxamide]
> 10 µM | 6% | Cc1nn(C)cc1S(=O)(=O)N1CC[C@@H](C(=O)Nc2ccc3scnc3c2)C1 [Compound 137, (R)-N-(benzo[d]thiazol-5-yl)-1-((1,3-dimethyl-1H-pyrazol-4-yl)sulfonyl)pyrrolidine-3-carboxamide]
> 10 µM | 7% | CC1(C)CN(S(=O)(=O)c2ccc3c(c2)CCO3)CCC1C(=O)Nc1ccc2scnc2c1 (stereo not shown) [Compound 138, N-(benzo[d]thiazol-5-yl)-1-((2,3-dihydrobenzofuran-5-yl)sulfonyl)-3,3-dimethylpiperidine-4-carboxamide]
0.076 µM | 2% | [2H]C1([2H])Oc2ccc(S(=O)(=O)N3CCC(C(=O)Nc4ccc5scnc5c4)CC3)cc2C1([2H])[2H] [Compound 139, N-(benzo[d]thiazol-5-yl)-1-((2,3-dihydrobenzofuran-5-yl-2,2,3,3-d4)sulfonyl)piperidine-4-carboxamide]
> 10 µM | 40% | Cc1nn(C)cc1S(=O)(=O)N1CCC(C(=O)Nc2ccc3scnc3c2)C(C)(C)C1 (stereo not shown) [Compound 143, N-(benzo[d]thiazol-5-yl)-1-((1,3-dimethyl-1H-pyrazol-4-yl)sulfonyl)-3,3-dimethylpiperidine-4-carboxamide]
> 10 µM | 25% | CC1(C)CN(S(=O)(=O)c2cc3c(cc2F)OCC3)CCC1C(=O)Nc1ccc2scnc2c1 (stereo not shown) [Compound 144, N-(benzo[d]thiazol-5-yl)-1-((6-fluoro-2,3-dihydrobenzofuran-5-yl)sulfonyl)-3,3-dimethylpiperidine-4-carboxamide]
0.404 µM | 2% | O=C(Nc1ccc2scnc2c1)C1CCN(S(=O)(=O)c2cc3c(cc2F)OCC3)CC1(F)F (stereo not shown) [Compound 147, N-(benzo[d]thiazol-5-yl)-3,3-difluoro-1-((6-fluoro-2.3-dihydrobenzofuran-5-yl)sulfonyl)piperidine-4-carboxamide]
0.03 µM | 3% | [2H]C1([2H])Oc2ccc(S(=O)(=O)N3C[C@@H](C)[C@@H](C(=O)Nc4ccc5scnc5c4)C3)cc2C1([2H])[2H] [Compound 148, (3R,4S)-N-(benzo[d]thiazol-5-yl)-1-((2,3-dihydrobenzofuran-5-yl-2,2,3,3-d4)sulfonyl)-4-methylpyrrolidine-3-carboxamide]
0.352 µM | 3% | O=C(Nc1ccc2scnc2c1)[C@@H]1CCN(S(=O)(=O)c2ccc3ncccc3c2)C1 [Compound 152, (R)-N-(benzo[d]thiazol-5-yl)-1-(quinolin-6-ylsulfonyl)pyrrolidine-3-carboxamide]
1.47 µM | 3% | COc1ccc(S(=O)(=O)N2CC[C@@H](C(=O)Nc3ccc4scnc4c3)C2)c(C)c1 [Compound 153, (R)-N-(benzo[d]thiazo1-5-yl)-1-((4-methoxy-2-methylphenyl)sulfonyl)pyrr olidine-3-carboxarnide]
> 10 µM | 6% | O=C(Nc1ccc2scnc2c1)C1CCN(S(=O)(=O)c2ccccc2F)CC1 [Compound 156, N-(benzo[d]thiazol-5-yl)-1-((2-fluorophcnyl)sulfonyl)piper idine-4-carboxaniide]
2.34 µM | 4% | Cn1cc(S(=O)(=O)N2CCC(C(=O)Nc3ccc4scnc4c3)CC2)c(C(F)(F)F)n1 [Compound 157, N-(benzo[d]thiazol-5-yl)-1-((1-methyl-3-(trifluoromethyl)-1H-pyrazo1-4-yl)sulfonyl)piperidine-4-carboxamide]
